4 compounds from patent US5179206A, “Substituted 3-aminosydnone imines” (Cassella Aktiengellschaft, priority 1989, dated 1993) can be followed below.

The subject of this assay is pulmonary artery of the guinea pig (spiral strips). As to the kind of experiment: Relaxant effect on potassium-depolarized, CaCl2-contracted spiral strips of the pulmonary artery of the guinea pig (modified method of Godfraind and Kaba and of Schuman et al). Conditions: depolarized using 40 mmol/l of potassium, contraction induced by 0.5 mmol/l of CaCl2, average value of 4 to 6 vessel strips, read-out: IC50: concentration of the test substance which inhibits the contraction by 50%. The protocol:
The pharmacological action of the compounds of the formula I was determined by a modified method of Godfraind and Kaba (Arch.Int. Pharmacodyn. Ther. 196, (Suppl.) 35 to 49, 1972) and of Schuman et al (Naunyn-Schmiedeberg's Arch. Pharmacol. 289, 409 to 418, 1975). In this connection, spiral strips of the pulmonary artery of the guinea pig are depolarized using 40 mmol/l of potassium after equilibration in calcium-free Tyrode solution. An addition of 0.5 mmol/l of CaCl2 then induces a contraction. The relaxant effect of the test substance is determined by cumulative addition in semilogarithmic graduated concentrations. The concentration of the test substance which inhibits the contraction by 50% (=IC50, mol/l) is determined from the concentration-effect curve (abscissa: -log mol/l of test substance, ordinate: % inhibition of the maximum contraction, average value of 4 to 6 vessel strips).

Counter-ions that a name gives are not always drawn. Like-named read-outs stand apart in the source and are kept apart here.

In the case of `CC1CCCC(C)N1[n+]1[n-]oc(=N)c1Cc1ccccc1` (stereo not shown) [Example 6, 4-Benzyl-3-(2,6-dimethylpiperidino)sydnone imine hydrochloride], the IC50 (Cavia porcellus) was 2.3 µM. Still for that read-out and setting: the result for `CCCCCCc1c(=N)o[n-][n+]1N1C(C)CCCC1C` (stereo not shown) [Example 3, 3-(2,6-Dimethylpiperidino)-4-hexylsydnone imine hydrochloride] reads 2.4 µM; that for `CC1CCCC(C)N1[n+]1[n-]oc(=N)c1CCc1ccccc1` (stereo not shown) [Example 8, 3-(2,6-Dimethylpiperidino)-4-(2-phenylethyl)sydnone imine hydrochloride], 2 µM. Consider `CCOC(=O)[N-]c1cn(N2CCOCC2)n[o+]1` [Molsidomine, N-ethoxycarbonyl-3-morpholino-sydnone imine, reference compound], for which the IC50 is above 300 µM.
